This note sets out measurements from ChEMBL document CHEMBL1151888, “Synthesis, initial SAR and biological evaluation of 1,6-dihydroimidazo[4,5-d]pyrrolo[2,3-b]pyridin-4-amine derived inhibitors of IkappaB kinase” (Bioorg Med Chem Lett, 2009).

The test system of one data set is PBMC. The data set can be described thus: Antiinflammatory activity in human PBMC assessed as inhibition of LPS-induced TNFalpha production treated 30 mins before LPS challenge measured after 6 hrs of LPS induction by ELISA. It counts as functional, cell-based.
Data set [1] can be described thus: Solubility of the compound. The data set is classed as physicochemical.
The nature of data set [2]: Inhibition of IKK1-catalyzed phosphorylation of GST-tagged IkappaBalpha fusion protein by fluorescence polarization assay.
The test system of data set [3] is Rattus norvegicus. Put plainly: Antiinflammatory activity in Lewis rat assessed as inhibition of LPS-induced TNFalpha production at 30 mg/kg, po administered 4 hrs before LPS challenge measured after 90 mins by ELISA. It counts as functional. Also on record: scale not given: the % may be the effect or the level left.
Data set [4] deals with Blood. Put plainly: Antiinflammatory activity in Lewis rat whole blood assessed as inhibition of LPS-induced TNFalpha production at 17 uM treated 45 mins before LPS challenge measured after 4 hrs by ELISA. It counts as functional, tissue-based.
The nature of data set [5]: Total AUC in rat at 2 mg/kg, iv. Set-up: time AUCmax, dose 2 mg/kg, route intravenous. The settings on record: in vivo. It counts as ADME, organism-based.
The test system of data set [6] is Rattus norvegicus. Put plainly: Antiinflammatory activity in po dosed Lewis rat assessed as inhibition of LPS-induced TNFalpha production administered 4 hrs before LPS challenge measured after 90 mins by ELISA. It counts as functional, organism-based.
Data set [7] concerns Serum. The data set can be described thus: Drug level in Lewis rat serum at 3 mg/kg, po. It counts as ADME, organism-based. Also on record: dose 3 mg/kg, route oral. The settings on record: in vivo, read-out: Drug uptake.
Data set [8] concerns Serum. The data set can be described thus: Drug level in Lewis rat serum at 10 mg/kg, po. Set-up: dose 10 mg/kg, route oral. It counts as ADME, organism-based. The following applies: in vivo, read-out: Drug uptake.
Data set [9] in a line: Volume of distribution at steady state in rat at 2 mg/kg, iv. The data set is classed as ADME, organism-based. Also on record: dose 2 mg/kg, route intravenous. The following applies: in vivo, read-out: Vdss.
For data set [10], the system named is Serum. Put plainly: Drug level in Lewis rat serum at 30 mg/kg, po. It counts as ADME, organism-based. Also on record: dose 30 mg/kg, route oral. The following applies: in vivo, read-out: Drug uptake.
A short description of data set [11]: Clearance in rat at 2 mg/kg, iv. It counts as ADME, organism-based. Set-up: dose 2 mg/kg, route intravenous. The settings on record: in vivo.
Data set [12] is described as follows: Total AUC in rat at 10 mg/kg, po. It counts as ADME, organism-based. Also on record: time AUCmax, dose 10 mg/kg, route oral. The following applies: in vivo.
Data set [13] is described as follows: Half life in rat at 10 mg/kg, po. The data set is classed as ADME, organism-based. Set-up: dose 10 mg/kg, route oral. The following applies: in vivo.
The nature of data set [14]: Half life in rat at 2 mg/kg, iv. The following applies: in vivo. It counts as ADME, organism-based. Also on record: dose 2 mg/kg, route intravenous.
Data set [15] deals with Blood. Put plainly: Antiinflammatory activity in Lewis rat whole blood assessed as inhibition of LPS-induced TNFalpha production treated 45 mins before LPS challenge measured after 4 hrs by ELISA. It counts as functional, tissue-based.
The nature of data set [16]: Mean residence time in rat at 2 mg/kg, iv. The data set is classed as ADME, organism-based. Set-up: dose 2 mg/kg, route intravenous. The following applies: in vivo.
Data set [17] can be described thus: Mean residence time in rat at 10 mg/kg, po. It counts as ADME, organism-based. Also on record: dose 10 mg/kg, route oral. The following applies: in vivo.
A short description of data set [18]: Aqueous solubility at pH 1.0. It counts as physicochemical. The following applies: aqueous solution.
Data set [19] in a line: Oral bioavailability in rat at 10 mg/kg. The data set is classed as ADME, organism-based. The settings on record: in vivo.
The target of data set [20] is Inhibitor of nuclear factor kappa-B kinase subunit alpha (Homo sapiens) (UniProt O15111). Put plainly: Inhibition of IKK2-catalyzed phosphorylation of GST-tagged IkappaBalpha fusion protein by fluorescence polarization assay.

In brackets after ≈: the same amount, converted by molar mass. Activity calls are given as the source filed them. No cut-off for these calls is given here.

Inhibitor of nuclear factor kappa-B kinase subunit alpha (Homo sapiens), sequence (O15111 whole entry, looked up, the tested form may be a part): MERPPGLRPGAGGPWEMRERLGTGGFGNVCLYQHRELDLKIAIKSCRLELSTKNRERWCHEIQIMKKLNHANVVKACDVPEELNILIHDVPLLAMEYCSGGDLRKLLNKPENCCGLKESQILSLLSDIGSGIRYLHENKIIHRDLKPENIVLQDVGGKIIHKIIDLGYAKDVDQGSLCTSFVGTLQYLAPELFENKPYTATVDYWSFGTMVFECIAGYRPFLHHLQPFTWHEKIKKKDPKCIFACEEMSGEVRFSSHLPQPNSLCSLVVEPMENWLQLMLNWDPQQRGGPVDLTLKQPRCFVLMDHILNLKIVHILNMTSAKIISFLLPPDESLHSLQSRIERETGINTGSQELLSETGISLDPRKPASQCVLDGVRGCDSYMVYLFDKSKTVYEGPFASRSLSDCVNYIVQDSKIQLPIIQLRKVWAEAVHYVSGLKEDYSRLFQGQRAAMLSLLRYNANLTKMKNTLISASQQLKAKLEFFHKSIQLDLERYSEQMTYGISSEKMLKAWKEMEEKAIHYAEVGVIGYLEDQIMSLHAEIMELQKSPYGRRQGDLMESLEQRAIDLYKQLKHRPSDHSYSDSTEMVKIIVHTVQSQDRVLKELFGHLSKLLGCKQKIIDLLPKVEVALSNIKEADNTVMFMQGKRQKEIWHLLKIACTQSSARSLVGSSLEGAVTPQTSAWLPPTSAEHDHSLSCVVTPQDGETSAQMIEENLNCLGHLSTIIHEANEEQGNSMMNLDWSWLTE

On to `CNc1nc2[nH]c(-c3ccccc3F)cc2c2c1ncn2C`, for which, in the data set on PBMC, the IC50 stood at 931 nM.
For the molecule `CNc1nc2[nH]c(-c3cccc(C#N)c3)cc2c2c1ncn2C`, in data set [1], the solubility was < 5 µg/mL. In addition, the figures for the half-maximal inhibitory concentration (IC50) (in data set [2]; in the data set on PBMC) were 7 nM and 86 nM, respectively.
Consider `CNc1nc2[nH]c(-c3ccccc3)cc2c2c1ncn2C`, for which, in the data set on PBMC, the IC50 was determined as 800 nM.
For `CNc1nc2[nH]c(-c3cccc(CNC(=O)CCC(N)=O)c3)cc2c2c1ncn2C`, the half-inhibitory concentration (IC50) in [2] turned out to be 22 nM; in the data set on PBMC, 1000 nM.
With `CNc1nc2c(nc(-c3ccccc3)n2C)c2c1ncn2C`, the IC50 in the data set with PBMC is 446 nM.
For `CNc1nc2sc(-c3ccccc3)nc2c2c1ncn2C`, the IC50 in the data set with PBMC was 310 nM.
Consider `CNc1nc2oc(-c3ccccc3)nc2c2c1ncn2C`, for which the IC50 in the data set on PBMC was 390 nM.
Take `CNc1nc2[nH]c(-c3cccc(CNC(=O)CCOC)c3)cc2c2c1ncn2C`: the Activity is 85% in the data set with Rattus norvegicus [3] and “Dose-dependent effect” in the data set on Rattus norvegicus [6]. Moreover, the result in the data set with Blood [4] was Active. Further, the area under the curve (AUC) came to 46.9 µM·h in data set [5] and 71.7 µM·h in data set [12]. In addition, the concentration in the data set on Serum [7] was determined as 900 nM; in the data set on Serum [8], 3000 nM; in the data set with Serum [10], 17000 nM. In addition, the Vd in data set [9] turned out to be 0.2 L/kg. In addition, the clearance in data set [11] was found to be 1.8 mL/min/kg. For the same molecule, the half-inhibitory concentration (IC50) in data set [2] stood at 12 nM; in the data set with Blood [15] it was 8000 nM; with PBMC it was 370 nM; in data set [20], 2620 nM. In addition, the half-life in data set [13] was 11 h; in data set [14], 4.8 h. Besides, the mean residence time (MRT) in data set [16] was 2.1 h; in data set [17], 14.7 h. This molecule gave a solubility in data set [18] of 1820 µg/mL (≈ 4.65 mM). In data set [19], this molecule gave a bioavailability of 31%.
For `CNc1nc2[nH]c(-c3cccc(CN)c3)cc2c2c1ncn2C`, the IC50 in the data set with PBMC worked out at 340 nM.
`CNc1nc2[nH]c(-c3cccc(CNC(=O)CN(C)C)c3)cc2c2c1ncn2C`: the figures for the IC50 (in data set [2]; with PBMC) were 79 nM and 2000 nM, respectively.
Consider `CNc1nc2[nH]c(-c3cccc(CNC(=O)CO)c3)cc2c2c1ncn2C`, for which the 50% inhibitory concentration (IC50) in the data set on PBMC turned out to be 478 nM.
In the case of `CNc1nc2[nH]c(-c3cccc(OC)c3)cc2c2c1ncn2C`, the concentration for half-maximal inhibition (IC50) in [2] was 8 nM; with PBMC it was 320 nM.
`CNc1nc2[nH]c(-c3cccc(F)c3)cc2c2c1ncn2C`: the IC50 in the data set on PBMC was 153 nM.
In the case of `CNc1nc2[nH]c(-c3cccc(CNC(C)=O)c3)cc2c2c1ncn2C`, the figures for the IC50 (in [2]; with PBMC; in data set [20]) were 14 nM, 372 nM and 633 nM, respectively.
For `CNc1nc2[nH]c(-c3ccc(F)cc3)cc2c2c1ncn2C` the same measures were 43 nM, 538 nM and 1730 nM.
